Laboratory results as given in ChEMBL document CHEMBL3046635, “Synthesis and Herbicidal Activity of New Pyrazole-4-carboxamide Derivatives” (J Pestic Sci, 2004).
Activity calls are given as the source filed them.

Columns and labels:
Rotala indica [1] = experiment: Pre-emergence herbicidal activity against Rotala indica assessed as bleaching of stem/leaf parts; type: functional, organism-based
Rotala indica [2] = experiment: Pre-emergence herbicidal activity against Rotala indica at 500 g a.i/ha measured after 14 days; type: functional, organism-based
Ammannia multiflora [3] = experiment: Pre-emergence herbicidal activity against Ammannia multiflora at 500 g a.i/ha measured after 14 days; type: functional, organism-based
Echinochloa oryzicola [4] = experiment: Pre-emergence herbicidal activity against Echinochloa oryzicola at 500 g a.i/ha measured after 14 days; type: functional, organism-based
Echinochloa oryzicola [5] = experiment: Pre-emergence herbicidal activity against Echinochloa oryzicola at 100 g a.i/ha measured after 14 days; type: functional, organism-based
Eleocharis acicularis [6] = experiment: Post-emergence herbicidal activity against Eleocharis acicularis assessed as bleaching of stem/leaf parts; type: functional, organism-based; also: test concentration or dose not given here
Elatine triandra [7] = experiment: Pre-emergence herbicidal activity against Elatine triandra assessed as bleaching of stem/leaf parts; type: functional, organism-based
[8] = tested on: Schoenoplectiella juncoides; experiment: Pre-emergence herbicidal activity against Schoenoplectiella juncoides at 500 g a.i/ha measured after 14 days; type: functional, organism-based
Lindernia procumbens [9] = experiment: Pre-emergence herbicidal activity against Lindernia procumbens assessed as bleaching of stem/leaf parts; type: functional, organism-based
[10] = tested on: Schoenoplectiella juncoides; experiment: Pre-emergence herbicidal activity against Schoenoplectiella juncoides at 100 g a.i/ha measured after 14 days; type: functional, organism-based
Lindernia procumbens [11] = experiment: Pre-emergence herbicidal activity against Lindernia procumbens at 500 g a.i/ha measured after 14 days; type: functional, organism-based
Pontederia vaginalis [12] = experiment: Pre-emergence herbicidal activity against Monochoria vaginalis at 100 g a.i/ha measured after 14 days; type: functional, organism-based
Lindernia procumbens [13] = experiment: Post-emergence herbicidal activity against Lindernia procumbens assessed as bleaching of stem/leaf parts; type: functional, organism-based; also: test concentration or dose not given here
Cyperus difformis [14] = experiment: Pre-emergence herbicidal activity against Cyperus difformis at 100 g a.i/ha measured after 14 days; type: functional, organism-based
Cyperus difformis [15] = experiment: Post-emergence herbicidal activity against Cyperus difformis assessed as bleaching of stem/leaf parts; type: functional, organism-based; also: test concentration or dose not given here
Eleocharis acicularis [16] = experiment: Pre-emergence herbicidal activity against Eleocharis acicularis at 500 g a.i/ha measured after 14 days; type: functional, organism-based
Echinochloa oryzicola [17] = experiment: Pre-emergence herbicidal activity against Echinochloa oryzicola assessed as bleaching of stem/leaf parts; type: functional, organism-based
Pontederia vaginalis [18] = experiment: Pre-emergence herbicidal activity against Monochoria vaginalis assessed as bleaching of stem/leaf parts; type: functional, organism-based
Ammannia multiflora [19] = experiment: Pre-emergence herbicidal activity against Ammannia multiflora assessed as bleaching of stem/leaf parts; type: functional, organism-based
Oryza sativa [20] = experiment: Phytotoxicity against Oryza sativa cv. Koshihikari (rice) at 500 g a.i/ha measured after 14 days; type: organism-based; conditions: in vivo, 336 h
Echinochloa oryzicola [21] = experiment: Post-emergence herbicidal activity against Echinochloa oryzicola assessed as bleaching of stem/leaf parts; type: functional, organism-based; also: test concentration or dose not given here
Cyperus difformis [22] = experiment: Pre-emergence herbicidal activity against Cyperus difformis at 500 g a.i/ha measured after 14 days; type: functional, organism-based
Eleocharis acicularis [23] = experiment: Pre-emergence herbicidal activity against Eleocharis acicularis assessed as bleaching of stem/leaf parts; type: functional, organism-based
Pontederia vaginalis [24] = experiment: Post-emergence herbicidal activity against Monochoria vaginalis assessed as bleaching of stem/leaf parts; type: functional, organism-based; also: test concentration or dose not given here
Elatine triandra [25] = experiment: Post-emergence herbicidal activity against Elatine triandra assessed as bleaching of stem/leaf parts; type: functional, organism-based; also: test concentration or dose not given here
Rotala indica [26] = experiment: Pre-emergence herbicidal activity against Rotala indica at 100 g a.i/ha measured after 14 days; type: functional, organism-based
Elatine triandra [27] = experiment: Pre-emergence herbicidal activity against Elatine triandra at 100 g a.i/ha measured after 14 days; type: functional, organism-based
Ammannia multiflora [28] = experiment: Pre-emergence herbicidal activity against Ammannia multiflora at 100 g a.i/ha measured after 14 days; type: functional, organism-based
Lindernia procumbens [29] = experiment: Pre-emergence herbicidal activity against Lindernia procumbens at 100 g a.i/ha measured after 14 days; type: functional, organism-based
Ammannia multiflora [30] = experiment: Post-emergence herbicidal activity against Ammannia multiflora assessed as bleaching of stem/leaf parts; type: functional, organism-based; also: test concentration or dose not given here
[31] = tested on: Schoenoplectiella juncoides; experiment: Pre-emergence herbicidal activity against Schoenoplectiella juncoides assessed as bleaching of stem/leaf parts; type: functional, organism-based
Oryza sativa [32] = experiment: Phytotoxicity against Oryza sativa cv. Koshihikari (rice) at 100 g a.i/ha measured after 14 days; type: organism-based; conditions: in vivo, 336 h
Eleocharis acicularis [33] = experiment: Pre-emergence herbicidal activity against Eleocharis acicularis at 100 g a.i/ha measured after 14 days; type: functional, organism-based
Elatine triandra [34] = experiment: Pre-emergence herbicidal activity against Elatine triandra at 500 g a.i/ha measured after 14 days; type: functional, organism-based
Pontederia vaginalis [35] = experiment: Pre-emergence herbicidal activity against Monochoria vaginalis at 500 g a.i/ha measured after 14 days; type: functional, organism-based
Cyperus difformis [36] = experiment: Pre-emergence herbicidal activity against Cyperus difformis assessed as bleaching of stem/leaf parts; type: functional, organism-based
Rotala indica [37] = experiment: Post-emergence herbicidal activity against Rotala indica assessed as bleaching of stem/leaf parts; type: functional, organism-based; also: test concentration or dose not given here
[38] = tested on: Schoenoplectiella juncoides; experiment: Post-emergence herbicidal activity against Schoenoplectiella juncoides assessed as bleaching of stem/leaf parts; type: functional, organism-based; also: test concentration or dose not given here

Row | Compound | Activity (Rotala indica [1]) | Activity (Rotala indica [2]) | Activity (Ammannia multiflora [3]) | Activity (Echinochloa oryzicola [4]) | Activity (Echinochloa oryzicola [5]) | Activity (Eleocharis acicularis [6]) | Activity (Elatine triandra [7]) | Activity [8] | Activity (Lindernia procumbens [9]) | Activity [10] | Activity (Lindernia procumbens [11]) | Activity (Pontederia vaginalis [12]) | Activity (Lindernia procumbens [13]) | Activity (Cyperus difformis [14]) | Activity (Cyperus difformis [15]) | Activity (Echinochloa oryzicola [17]) | Activity (Pontederia vaginalis [18]) | Activity (Ammannia multiflora [19]) | Activity (Oryza sativa [20]) | Activity (Echinochloa oryzicola [21]) | further results
1 | Cn1cc(C(=O)Nc2ccc(F)cc2F)c(OCc2cccc(C(F)(F)F)c2)n1 | Active | Active | Active | inactive | inactive | Active | Active | Active | Active | inactive | Active | Active | Active | Active | Active | Active | Active | Active | Toxic | Active | Activity (Eleocharis acicularis [16]): Active; Activity (Cyperus difformis [22]): Active; Activity (Eleocharis acicularis [23]): Active; Activity (Pontederia vaginalis [24]): Active; Activity (Elatine triandra [25]): Active; Activity (Rotala indica [26]): Active; Activity (Elatine triandra [27]): Active; Activity (Ammannia multiflora [28]): Active; Activity (Lindernia procumbens [29]): Active; Activity (Ammannia multiflora [30]): Active; Activity [31]: Active; Activity (Oryza sativa [32]): Non-toxic; Activity (Eleocharis acicularis [33]): Active; Activity (Elatine triandra [34]): Active; Activity (Pontederia vaginalis [35]): Active; Activity (Cyperus difformis [36]): Active; Activity (Rotala indica [37]): Active; Activity [38]: Active
2 | CCONC(=O)c1cn(C(F)F)nc1OCc1cccc(C(F)(F)F)c1 | Active | Active | Active | Active | inactive | Active | Active | Active | Active | Active | Active | Active | Active | Active | Active | Active | Active | Active | Non-toxic | Active | Activity (Cyperus difformis [22]): Active; Activity (Eleocharis acicularis [23]): Active; Activity (Pontederia vaginalis [24]): Active; Activity (Elatine triandra [25]): Active; Activity (Rotala indica [26]): Active; Activity (Elatine triandra [27]): Active; Activity (Ammannia multiflora [28]): Active; Activity (Lindernia procumbens [29]): Active; Activity (Ammannia multiflora [30]): Active; Activity [31]: Active; Activity (Oryza sativa [32]): Non-toxic; Activity (Elatine triandra [34]): Active; Activity (Pontederia vaginalis [35]): Active; Activity (Cyperus difformis [36]): Active; Activity (Rotala indica [37]): Active; Activity [38]: Active
3 | Cn1cc(C(=O)NOc2cccc(Cl)c2)c(OCc2cccc(C(F)(F)F)c2)n1 | Active | Active | Active | Active | Active | Active | Active | Active | Active | Active | Active | Active | Active | Active | Active | Active | Active | Active | Non-toxic | Active | Activity (Eleocharis acicularis [16]): Active; Activity (Cyperus difformis [22]): Active; Activity (Eleocharis acicularis [23]): Active; Activity (Pontederia vaginalis [24]): Active; Activity (Elatine triandra [25]): Active; Activity (Rotala indica [26]): Active; Activity (Elatine triandra [27]): Active; Activity (Ammannia multiflora [28]): Active; Activity (Lindernia procumbens [29]): Active; Activity (Ammannia multiflora [30]): Active; Activity [31]: Active; Activity (Oryza sativa [32]): Non-toxic; Activity (Eleocharis acicularis [33]): Active; Activity (Elatine triandra [34]): Active; Activity (Pontederia vaginalis [35]): Active; Activity (Cyperus difformis [36]): Active; Activity (Rotala indica [37]): Active; Activity [38]: Active
4 | Cn1cc(C(=O)Nc2ccc(Cl)cc2Cl)c(OCc2cccc(C(F)(F)F)c2)n1 | Active | Active | Active | Active | inactive | Active | Active | Active | Active | inactive | Active | Active | Active | Active | Active | Active | Active | Active | Toxic | Active | Activity (Eleocharis acicularis [16]): Active; Activity (Cyperus difformis [22]): Active; Activity (Eleocharis acicularis [23]): Active; Activity (Pontederia vaginalis [24]): Active; Activity (Elatine triandra [25]): Active; Activity (Rotala indica [26]): Active; Activity (Elatine triandra [27]): Active; Activity (Ammannia multiflora [28]): Active; Activity (Lindernia procumbens [29]): Active; Activity (Ammannia multiflora [30]): Active; Activity [31]: Active; Activity (Oryza sativa [32]): Non-toxic; Activity (Eleocharis acicularis [33]): Active; Activity (Elatine triandra [34]): Active; Activity (Pontederia vaginalis [35]): Active; Activity (Cyperus difformis [36]): Active; Activity (Rotala indica [37]): Active; Activity [38]: Active
5 | Cn1cc(C(=O)NOc2ccccc2)c(OCc2cccc(C(F)(F)F)c2)n1 | Active | Active | Active | Active | Active | Active | Active | Active | Active | inactive | Active | Active | Active | Active | Active | Active | Active | Active | Non-toxic | Active | Activity (Eleocharis acicularis [16]): Active; Activity (Cyperus difformis [22]): Active; Activity (Eleocharis acicularis [23]): Active; Activity (Pontederia vaginalis [24]): Active; Activity (Elatine triandra [25]): Active; Activity (Rotala indica [26]): Active; Activity (Elatine triandra [27]): Active; Activity (Ammannia multiflora [28]): Active; Activity (Lindernia procumbens [29]): Active; Activity (Ammannia multiflora [30]): Active; Activity [31]: Active; Activity (Oryza sativa [32]): Non-toxic; Activity (Eleocharis acicularis [33]): Active; Activity (Elatine triandra [34]): Active; Activity (Pontederia vaginalis [35]): Active; Activity (Cyperus difformis [36]): Active; Activity (Rotala indica [37]): Active; Activity [38]: Active
6 | CCONC(=O)c1cn(C)nc1OCc1cccc(C(F)(F)F)c1 | Active | Active | Active | Active | Active | Active | Active | Active | Active | Active | Active | Active | Active | Active | Active | Active | Active | Active | Non-toxic | Active | Activity (Eleocharis acicularis [16]): Active; Activity (Cyperus difformis [22]): Active; Activity (Eleocharis acicularis [23]): Active; Activity (Pontederia vaginalis [24]): Active; Activity (Elatine triandra [25]): Active; Activity (Rotala indica [26]): Active; Activity (Elatine triandra [27]): Active; Activity (Ammannia multiflora [28]): Active; Activity (Lindernia procumbens [29]): Active; Activity (Ammannia multiflora [30]): Active; Activity [31]: Active; Activity (Oryza sativa [32]): Non-toxic; Activity (Eleocharis acicularis [33]): Active; Activity (Elatine triandra [34]): Active; Activity (Pontederia vaginalis [35]): Active; Activity (Cyperus difformis [36]): Active; Activity (Rotala indica [37]): Active; Activity [38]: Active
